Results: patent US12655150B2 (Cedilla Therapeutics, Inc., priority 2021, dated 2026)

test system: NCI-H226; experiment: 72H TEAD Proliferation Assay (Cell Titer Glo 2.0); type: cell-based; details: Homo sapiens, NCI-H226, 72 h, CTG 2.0, cell line not given (NCI-H226 responsive, NCI-H28 non-responsive)
Protocol: 72H TEAD Proliferation Assay.
The effect of TEAD inhibition on cell proliferation was assayed using Cell Titer Glo (CTG) 2.0 to measure response in mesothelioma cell lines NCI-H226 (ATCC, #CRL-5826) and NCI-H28 (ATCC, #CRL-5820).
The 72H TEAD Proliferation assay utilizes Cell Titer-Glo 2.0 (Promega, #G9243) to measure the proliferation of cells in the presence or absence of compound. Cell Titer-Glo 2.0 determines the amount of viable cells by quantifying ATP (an indication of metabolically active cells). It utilizes the conversion of Luciferin to Oxyluciferin and a luminescent signal with the use of ATP to report the quantity of viable cells in culture. Within cells that are continually growing, ATP is being synthesized to meet their metabolic demands, meanwhile the opposite is true for cells that are dying or slowing down their proliferation and either no longer using ATP or are using less, respectively. The NF2-deficient NCI-H226 has been genetically validated as a cell line that is sensitive to TEAD inhibition. The NF2-wild type NCI-H28 has been genetically validated as a cell line that is not sensitive to TEAD inhibition and grows independently of TEAD activity.
Compounds were screened against the responsive NCI-H226 cell line to assess the compounds' ability to inhibit TEAD and cell growth. Compounds were also screened against the non-responsive NCI-H28 cell line to ascertain whether the inhibition of cell growth was due to inhibition of the target TEAD or whether the inhibition was due to off-target cytotoxicity.
• 1) Assay ready plates (ARPs) were prepared by Echo acoustic liquid handler. […] After CTG addition, plates were placed on shaker at 800 RPM for 15 minutes at room temperature and kept in the dark. Luminescence was measured using EnVision multilabel plate reader with ultra-sensitive detection module. • 9) Data Analysis: First background luminescence (no CTG wells) was subtracted from luminescence reading of all wells, then TO luminescence was subtracted from T72 luminescence. To compare anti-proliferative effect of compounds, GI50 was obtained by fitting dose response curves with nonlinear regression curve fit.

Row | GI50 | Structure (SMILES)
1 | 5 to 10 µM | FC(F)(F)c1ccc(-c2nc3cc(-c4nnn[nH]4)ccc3n3cccc23)cc1 [I-184, 7-(1H-tetrazol-5-yl)-4-(4-(trifluoromethyl)phenyl)pyrrolo[1,2-a]quinoxaline]
2 | 1 to 5 µM | CC(C)(C)c1ccc(-c2nc3cc(NC(=O)CN)ccc3n3cccc23)cc1 [I-206, 2-Amino-N-(4-(4-(tert-butyl)phenyl)pyrrolo[1,2-a]quinoxalin-7-yl)acetamide]
3 | 1 to 5 µM | CC(C)(C)c1ccc(-c2nc3cc(C(=O)O)ccc3n3cc(F)cc23)cc1 [I-108, 4-(4-(tert-Butyl)phenyl)-2-fluoropyrrolo[1,2-a]quinoxaline-7-carboxylic acid]
4 | 1 to 5 µM | O=C(O)c1ccc2c(c1)nc(N1CCC(C(F)F)CC1)c1cccn12 [I-17, 4-(4-(Difluoromethyl)piperidin-1-yl)pyrrolo[1,2-a]quinoxaline-7-carboxylic acid]
5 | ≤ 1 µM | C=CC(=O)NCc1nc(-c2ccc(C(F)(F)F)cc2)c2ccc(F)cc2n1 [I-445, N-((7-fluoro-4-(4-(trifluoromethyl)phenyl)quinazolin-2-yl)methyl)acrylamide]
6 | ≤ 1 µM | CC(C)Oc1cc(-c2ccc(C(F)(F)F)cc2)nc2cc(C(=O)O)ccc12 [I-394, 4-isopropoxy-2-(4-(trifluoromethyl)phenyl)quinoline-7-carboxylic acid]
7 | ≤ 1 µM | C[C@H](CO)NC(=O)c1ccc2c(c1)nc(-c1ccc(C(C)(C)C)cc1)c1cccn12 [I-191, (R)-4-(4-(tert-butyl)phenyl)-N-(1-hydroxypropan-2-yl)pyrrolo[1,2-a]quinoxaline-7-carboxamide]
8 | 1 to 5 µM | COc1cc(-c2ccc(C(F)(F)F)cc2)nc2cc(C(=O)NCC(O)C(F)(F)F)ccc12 (centres unmarked) [I-382, 4-methoxy-N-(3,3,3-trifluoro-2-hydroxypropyl)-2-(4-(trifluoromethyl)phenyl)quinoline-7-carboxamide]
9 | 1 to 5 µM | Cc1cc(C(=O)O)cc2nc(-c3ccc(C(C)(C)C)cc3)c3cccn3c12 [I-321, 4-(4-(Tert-butyl)phenyl)-9-methylpyrrolo[1,2-a]quinoxaline-7-carboxylic acid]
10 | 1 to 5 µM | Cc1nc(-c2ccc(C(F)(F)F)cc2)nc2cc(C(=O)O)ccc12 [I-435, 4-methyl-2-(4-(trifluoromethyl)phenyl)quinazoline-7-carboxylic acid]
11 | ≤ 1 µM | O=C(O)c1ccc2c(OC(F)F)cc(-c3ccc(C(F)(F)F)cc3)nc2c1 [I-331, 4-(Difluoromethoxy)-2-(4-(trifluoromethyl)phenyl)quinoline-7-carboxylic acid]
12 | ≤ 1 µM | C=CC(=O)NCc1cn2c(F)ccc2c(-c2ccc(C(F)(F)F)cc2)n1 [I-318, N-((6-Fluoro-1-(4-(trifluoromethyl)phenyl)pyrrolo[1,2-a]pyrazin-3-yl)methyl)acrylamide]
13 | ≤ 1 µM | C=CC(=O)NCc1cn2ccnc2c(N(C)Cc2ccc(C(F)(F)F)cc2)n1 [I-300, N-((8-(methyl(4-(trifluoromethyl)benzyl)amino)imidazo[1,2-a]pyrazin-6-yl)methyl)acrylamide]
14 | ≤ 1 µM | COc1cc(-c2ccc(C(F)(F)F)cc2)nc2cc(S(C)(=O)=O)ccc12 [I-415, 4-methoxy-7-(methylsulfonyl)-2-(4-(trifluoromethyl)phenyl)quinoline]
15 | 1 to 5 µM | Cn1cnc(-c2cc(-c3ccc(C(F)(F)F)cc3)nc3cc(C(=O)O)ccc23)c1 [I-388, 4-(1-methyl-1H-imidazol-4-yl)-2-(4-(trifluoromethyl)phenyl)quinoline-7-carboxylic acid]
16 | ≤ 1 µM | C=CC(=O)NCc1cn2c(F)ccc2c(-c2ccc(C(C)(C)C)cc2)n1 [I-409, N-((1-(4-(tert-butyl)phenyl)-6-fluoropyrrolo[1,2-a]pyrazin-3-yl)methyl)acrylamide]

Row | GI50 | Structure (SMILES)
17 | 5 to 10 µM | O=C(O)c1ccc2c(c1)nc(-c1c(Cl)cc(C(F)(F)F)cc1Cl)c1cccn12 [I-201, 4-(2,6-Dichloro-4-(trifluoromethyl)phenyl)pyrrolo[1,2-a]quinoxaline-7-carboxylic acid]
18 | > 10 µM | O=C(O)c1ccc2c(c1)nc(N1CCCC1)c1cccn12 [I-15, 4-(Pyrrolidin-1-yl)pyrrolo[1,2-a]quinoxaline-7-carboxylic acid]
19 | 5 to 10 µM | O=C(O)c1ccc2c(c1)nc(N1CCC3(CCC3)C1)c1cccn12 [I-33, 4-(6-Azaspiro[3.4]octan-6-yl)pyrrolo[1,2-a]quinoxaline-7-carboxylic acid]
20 | > 10 µM | O=C(O)c1ccc2c(c1)nc(N1CCC3(CC1)COC3)c1cccn12 [I-29, 4-(2-Oxa-7-azaspiro[3.5]nonan-7-yl)pyrrolo[1,2-a]quinoxaline-7-carboxylic acid]
21 | ≤ 1 µM | C=CC(=O)Nc1ccc2c(OC)cc(-c3ccc(C(C)(C)C)cc3)nc2c1 [I-384, N-(2-(4-(Tert-butyl)phenyl)-4-methoxyquinolin-7-yl)acrylamide]
22 | 1 to 5 µM | CC(C)(C)c1ccc(-c2nc3cc(NC(=O)CO)ccc3n3cccc23)cc1 [I-203, N-(4-(4-(tert-butyl)phenyl)pyrrolo[1,2-a]quinoxalin-7-yl)-2-hydroxyacetamide]
23 | 1 to 5 µM | O=C(O)c1ccc2c(c1)nc(N1CCC3(CCOC3)CC1)c1cccn12 [I-35, 4-(2-Oxa-8-azaspiro[4.5]decan-8-yl)pyrrolo[1,2-a]quinoxaline-7-carboxylic acid]
24 | ≤ 1 µM | C=CC(=O)NCc1nc(-c2ccc(C(F)(F)F)cc2)c2ccccc2n1 [I-167, N-((4-(4-(trifluoromethyl)phenyl)quinazolin-2-yl)methyl)acrylamide]
25 | ≤ 1 µM | C=CC(=O)Nc1cn2cccc2c(-c2ccc(C3(C(F)(F)F)CC3)cc2)n1 [I-102, N-(1-(4-(1-(trifluoromethyl)cyclopropyl)phenyl)pyrrolo[1,2-a]pyrazin-3-yl)acrylamide]
26 | 1 to 5 µM | CCC(=O)Nc1ccc2c(c1)nc(-c1ccc(C(C)(C)C)cc1)c1nccn12 [I-134, N-(4-(4-(tert-butyl)phenyl)imidazo[1,2-a]quinoxalin-7-yl)propionamide]
27 | > 10 µM | CN(CCC(F)(F)F)c1nc2cc(C(=O)O)ccc2n2cccc12 [I-126, 4-(Methyl(3,3,3-trifluoropropyl)amino)pyrrolo[1,2-a]quinoxaline-7-carboxylic acid]
28 | > 10 µM | O=C(O)c1ccc2c(c1)nc(NCCC(F)(F)F)c1cccn12 [I-107, 4-((3,3,3-Trifluoropropyl)amino)pyrrolo[1,2-a]quinoxaline-7-carboxylic acid]
29 | 1 to 5 µM | O=C(O)c1ccc2c(N3CCCCC3)cc(-c3ccc(C(F)(F)F)cc3)nc2c1 [I-391, 4-(piperidin-1-yl)-2-(4-(trifluoromethyl)phenyl)quinoline-7-carboxylic acid]
30 | ≤ 1 µM | O=C(O)c1ccc2c(c1)nc(-c1ccc(C(F)(F)F)cn1)c1cccn12 [I-132, 4-(5-(Trifluoromethyl)pyridin-2-yl)pyrrolo[1,2-a]quinoxaline-7-carboxylic acid]
31 | > 10 µM | CC(C)(C)c1ccc(-c2cnc3ccc(-c4nnn[nH]4)cc3n2)cc1 [I-160, 2-(4-(tert-Butyl)phenyl)-7-(1H-tetrazol-5-yl)quinoxaline]
32 | 1 to 5 µM | COc1cc(-c2ccc(C(F)(F)F)cc2)nc2cc(C(=O)NCCC(=O)C(F)(F)F)ccc12 [I-362, 4-Methoxy-N-(4,4,4-trifluoro-3-oxobutyl)-2-(4-(trifluoromethyl)phenyl)quinoline-7-carboxamide]
